This test addresses 5-hydroxytryptamine receptor 7 (Rattus norvegicus) (UniProt P32305). Briefly: Modulation of rat 5HT7 receptor by cAMP assay. The class given is functional. (Cyclic AMP is a second messenger, typically raised through Gs and lowered through Gi signalling.)
5-hydroxytryptamine receptor 7 (Rattus norvegicus), sequence (P32305 whole entry): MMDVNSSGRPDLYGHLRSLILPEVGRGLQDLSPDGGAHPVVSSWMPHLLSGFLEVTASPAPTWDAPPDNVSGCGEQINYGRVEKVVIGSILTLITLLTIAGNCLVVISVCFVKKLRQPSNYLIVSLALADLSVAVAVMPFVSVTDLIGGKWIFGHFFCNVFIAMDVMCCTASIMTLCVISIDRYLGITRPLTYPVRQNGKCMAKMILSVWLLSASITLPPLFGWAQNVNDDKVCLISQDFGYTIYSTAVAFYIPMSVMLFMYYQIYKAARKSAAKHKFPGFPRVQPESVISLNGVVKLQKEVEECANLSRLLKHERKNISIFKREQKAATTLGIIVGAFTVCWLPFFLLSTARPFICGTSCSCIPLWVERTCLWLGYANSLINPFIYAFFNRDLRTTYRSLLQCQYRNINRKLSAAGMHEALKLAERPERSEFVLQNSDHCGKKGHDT
In turn, `FC(F)(COc1ccc(Cl)cc1OC1CNC1)c1ccccc1` displayed a pKb of 7.3.

For the compound `Clc1cccc(COc2ccc(Br)cc2OC2CNC2)c1`, the pKb was 7.5.

`C[C@@H](Oc1ccc(C(F)(F)F)cc1OC1CNC1)c1cccc(C(F)(F)F)c1` displayed a pKb of 6.8.

As to `Cc1nc(COc2ccc(Cl)cc2OC2CNC2)cs1`, the pKb came to 6.9.

The pKb is the negative decadic logarithm of the Kb, by convention in mol/L. Low readings indicate a high Kb, high ones a low Kb.

These data come from ChEMBL document CHEMBL3259547, “Selective 5-HT Receptor Modulators May Deliver Focused Targeting with Fewer Adverse Effects” (ACS Med Chem Lett, 2014).
